In patent US7718161B2, “Method for treating a motoneuron disorder” (UCB Pharma GmbH, priority 2004, dated 2010):
Entries after “also recorded” stand apart in the source; their conditions may differ.

Assays:
SOD mutant mice [1] = test: Rotarod test in SOD mutant mice; type: in vivo, mouse; details: twice daily intraperitoneally from day 60
Procedure: (§1) The transgenic mouse strain used for this study is G1H (Gurney et al., 1994). The animals begin to show signs of posterior limb weakness at around 3 months of age and die at 4 months.
(§2) 40 mice are included in the study and divided into 4 groups of 10 mice. • a SOD vehicle group • a SOD treated group (SPM 927 3 mg/kg) • a SOD treated group (SPM 927 10 mg/kg) • a SOD treated group (SPM 927 30 mg/kg)
(§3) • Rotarod test: this test evaluates the ability of the animal to stay on a rotating dowel allowing evaluation of motor coordination and proprioceptive sensitivity. The apparatus is a 3 cm diameter automated rod which turns at 12 rounds per minute (Bioseb, Paris, France). The rotarod test measures how long the mouse can maintain itself on the axle without falling. The test is stopped after an arbitrary limit of 120 s. Should the animal fall down before 120 s, the performance is recorded and two additional trials are performed. The mean time of 3 trials is calculated. […] The number of times the mice put their paws through the grid is counted and serves as a measure for motor coordination. • Hanging test: this test evaluates the ability of the animal to hang on a wire. […] The time needed by the animal to catch the string with its hindpaws is recorded (60 s maximum) during three consecutive trials. […]

SOD mutant mice [2] = test: Hanging test in SOD mutant mice; type: in vivo, mouse; details: twice daily intraperitoneally from day 60
Procedure: as §1, §2, §3

SOD mutant mice [3] = test: Grid test in SOD mutant mice; type: in vivo, mouse
Procedure: as §1, §2, §3

SOD mutant mice [4] = test: Electromyographic recordings (compound muscle action potential) in SOD mutant mice; type: in vivo, mouse
Procedure: as §1, §2
(§4) Animals were weighed every day. The general status of the mice was checked daily, especially for the presence of tremor, for skin aspect and for muscle wasting. EMG testing was performed once every week, starting on D70 of age until the death of the animals. The survival rate and the interval from symptom onset until death were recorded.
Electromyographic recordings were performed using a Neuromatic 2000M electromyography apparatus. During EMG the mice are anesthetized (60 mg kg-1, Imalgène®). The measured parameters are the amplitude and the latency of the compound muscle action potential (CMAP). CMAP is measured in gastrocnemius muscle after stimulation of the sciatic nerve. A reference electrode is inserted near the Achilles tendon and an active needle placed at the base of the tail. A ground needle is inserted on the lower back of the mouse. […] The amplitude (mV) and the latency of the response (ms) are measured. […]

SOD mutant mice [5] = test: Survival in the SOD mutant mouse model of ALS; type: in vivo
Procedure: The present study investigates the effects of SPM 927 to protect or to reduce impairments observed in this ALS model. For this purpose behavioral measurements and EMGs are performed in SOD-G93A mice overexpressing mutant human Cu, Zn SOD.
as §1, §2, §4
The animals were treated from day 60 (before the beginning of the clinical signs) until the animal's death. The treatment was administered twice daily intraperitoneally.
A global analysis of the data was made using one factor or repeated measures analysis of variance (ANOVA). […]

[6] = twice daily intraperitoneally from day 60, dose not given

(R)-2-acetamide-N-benzyl-3-methoxypropionamide [SPM 927]
motor symptoms in the rotarod test (SOD mutant mice [1]): alleviates motor symptoms | motor symptoms in the hanging test (SOD mutant mice [2]): alleviates motor symptoms | motor impairment (grid performance) (SOD mutant mice [3]; FIG. 2, 30 mg/kg, twice daily intraperitoneally): attenuates motor impairment | motor symptoms in the grid test (SOD mutant mice [3]; [6]): alleviates motor symptoms | motor impairment (latency of compound muscle action potential) (SOD mutant mice [4]; FIG. 3, 10 mg/kg, twice daily intraperitoneally): attenuates motor impairment | EMG abnormalities (SOD mutant mice [4]; [6]): attenuates motor symptoms including abnormalities in electrophysiological recordings (EMG) | life-span of SOD mutant mice (SOD mutant mice [5]; FIG. 1, 3, 10, 30 mg/kg twice daily intraperitoneally from day 60 until death): dose dependently prolongs life-span | survival time after onset of symptoms (SOD mutant mice [5]; chronic treatment twice daily intraperitoneally from day 60, G1H SOD-G93A mice): prolongs survival time after symptom onset; also recorded: prolongs survival time after onset of symptoms
